According to PMC2615555 (Virology, 2008):
Peptide text beside a SMILES is read from it.

Experiments:
Experiment in all cases: biochemical
Type in all cases: binding, BALB/c mouse
H2-D^d = H2-D^d (Mus musculus, UniProt P01900)
H2-K^d = H2-K^d (Mus musculus, UniProt P01902)
H2-L^d = H2-L^d (Mus musculus, UniProt P01897)
I-A^d = target: T1, I-A^d (Mus musculus, UniProt P01921+P04228); settings: Binding Assay IC50, I-A^d (membrane 15mers)
T1 sequence (P04228 24-256): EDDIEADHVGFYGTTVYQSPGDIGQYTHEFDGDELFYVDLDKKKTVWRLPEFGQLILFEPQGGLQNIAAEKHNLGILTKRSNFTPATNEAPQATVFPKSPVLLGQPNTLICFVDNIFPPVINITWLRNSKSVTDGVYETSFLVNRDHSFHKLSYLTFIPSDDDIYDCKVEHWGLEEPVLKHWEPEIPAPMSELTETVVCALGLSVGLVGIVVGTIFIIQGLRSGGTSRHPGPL
T1 sequence (P01921 28-265): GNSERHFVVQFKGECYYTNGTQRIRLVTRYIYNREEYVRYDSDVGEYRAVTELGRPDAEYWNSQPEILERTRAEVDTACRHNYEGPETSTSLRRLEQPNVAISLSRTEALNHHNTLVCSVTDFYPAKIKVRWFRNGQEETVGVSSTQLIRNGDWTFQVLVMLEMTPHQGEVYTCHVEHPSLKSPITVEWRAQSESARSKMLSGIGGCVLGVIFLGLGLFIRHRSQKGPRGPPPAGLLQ

I-E^d = target: T2, I-E^d (Mus musculus, UniProt P01904+P01915)
T2 sequence (P01904 26-255): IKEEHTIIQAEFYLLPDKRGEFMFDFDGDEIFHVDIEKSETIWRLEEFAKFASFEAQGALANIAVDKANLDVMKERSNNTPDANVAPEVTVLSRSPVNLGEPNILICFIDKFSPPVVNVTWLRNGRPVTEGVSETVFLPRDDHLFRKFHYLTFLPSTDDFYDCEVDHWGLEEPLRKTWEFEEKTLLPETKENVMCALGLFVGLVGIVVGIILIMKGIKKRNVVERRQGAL
T2 sequence (P01915 27-264 limits assumed): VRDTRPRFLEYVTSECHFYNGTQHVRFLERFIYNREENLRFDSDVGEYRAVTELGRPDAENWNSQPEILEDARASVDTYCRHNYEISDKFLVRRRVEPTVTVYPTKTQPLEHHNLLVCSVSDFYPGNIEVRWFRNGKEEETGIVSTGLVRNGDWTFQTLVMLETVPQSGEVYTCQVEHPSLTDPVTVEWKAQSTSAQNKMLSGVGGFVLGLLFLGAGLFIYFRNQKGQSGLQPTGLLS

H2-K^d, sequence (P01902 22-368): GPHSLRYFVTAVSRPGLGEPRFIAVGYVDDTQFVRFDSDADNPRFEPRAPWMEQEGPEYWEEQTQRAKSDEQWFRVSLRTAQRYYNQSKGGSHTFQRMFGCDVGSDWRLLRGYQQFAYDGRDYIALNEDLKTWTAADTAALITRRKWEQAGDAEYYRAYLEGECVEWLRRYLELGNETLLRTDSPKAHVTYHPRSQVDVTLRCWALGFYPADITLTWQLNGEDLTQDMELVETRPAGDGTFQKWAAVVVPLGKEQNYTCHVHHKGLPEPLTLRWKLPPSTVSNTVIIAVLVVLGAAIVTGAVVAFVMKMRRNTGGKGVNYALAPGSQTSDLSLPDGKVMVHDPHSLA
H2-K^d, sequence (P61769 21-119 partner): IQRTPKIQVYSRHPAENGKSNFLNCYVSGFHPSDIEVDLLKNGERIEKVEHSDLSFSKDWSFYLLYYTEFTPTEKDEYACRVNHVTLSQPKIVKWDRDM
H2-L^d, sequence (P01897 25-362): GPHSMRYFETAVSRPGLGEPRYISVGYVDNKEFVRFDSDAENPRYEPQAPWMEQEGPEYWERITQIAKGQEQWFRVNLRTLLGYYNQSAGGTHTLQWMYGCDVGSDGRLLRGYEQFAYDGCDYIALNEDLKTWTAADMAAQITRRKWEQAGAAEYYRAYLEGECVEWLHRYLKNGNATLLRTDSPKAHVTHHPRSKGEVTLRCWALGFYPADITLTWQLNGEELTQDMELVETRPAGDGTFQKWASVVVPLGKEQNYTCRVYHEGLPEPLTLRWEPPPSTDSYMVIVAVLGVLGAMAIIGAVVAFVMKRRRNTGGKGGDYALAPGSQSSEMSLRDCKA
H2-L^d, sequence (P61769 21-119 partner): as the sequence (P61769 21-119 partner) above
H2-D^d, sequence (P01900 25-365): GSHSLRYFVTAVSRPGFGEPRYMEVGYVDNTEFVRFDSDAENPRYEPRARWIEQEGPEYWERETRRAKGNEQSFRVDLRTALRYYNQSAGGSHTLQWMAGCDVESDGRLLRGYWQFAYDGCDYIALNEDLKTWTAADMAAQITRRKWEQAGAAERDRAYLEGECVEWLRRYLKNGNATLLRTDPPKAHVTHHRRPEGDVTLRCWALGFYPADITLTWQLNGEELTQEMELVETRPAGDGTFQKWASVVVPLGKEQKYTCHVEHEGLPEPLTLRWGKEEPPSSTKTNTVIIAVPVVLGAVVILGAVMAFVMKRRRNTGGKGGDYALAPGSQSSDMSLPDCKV
H2-D^d, sequence (P61769 21-119 partner): as the sequence (P61769 21-119 partner) above

Compound	IC50 (H2-D^d) [µM]	IC50 (H2-K^d) [µM]	IC50 (H2-L^d) [µM]	IC50 (I-A^d) [µM]	IC50 (I-E^d) [µM]
CC(C)C[C@H](NC(=O)[C@@H](NC(=O)[C@H](C)NC(=O)[C@H](CC(N)=O)NC(=O)[C@H](Cc1ccc(O)cc1)NC(=O)[C@H](CS)NC(=O)[C@@H](NC(=O)[C@H](CCCCN)NC(=O)[C@@H](N)CCCNC(=N)N)C(C)C)C(C)C)C(=O)O [E57–65]	> 70	> 70	39.4		
CC(C)C[C@H](NC(=O)[C@@H](NC(=O)[C@H](C)NC(=O)[C@H](CC(N)=O)NC(=O)[C@H](Cc1ccc(O)cc1)NC(=O)[C@H](CS)NC(=O)[C@@H](N)C(C)C)C(C)C)C(=O)N[C@H](C(=O)N[C@@H](Cc1c[nH]cn1)C(=O)O)[C@@H](C)O [E59–67] (H-VCYNAVLTH-OH)	> 70	0.211	55.4		
CC(C)C[C@H](NC(=O)[C@@H](NC(=O)[C@H](C)NC(=O)[C@H](CC(N)=O)NC(=O)[C@H](Cc1ccc(O)cc1)NC(=O)[C@@H](N)CS)C(C)C)C(=O)N[C@H](C(=O)N[C@@H](Cc1c[nH]cn1)C(=O)N[C@H](C(=O)O)C(C)C)[C@@H](C)O [E60–68] (H-CYNAVLTHV-OH)	> 70	0.001	> 70		
CC(C)C[C@H](NC(=O)[C@@H](NC(=O)[C@H](C)NC(=O)[C@H](CC(N)=O)NC(=O)[C@@H](N)Cc1ccc(O)cc1)C(C)C)C(=O)N[C@H](C(=O)N[C@@H](Cc1c[nH]cn1)C(=O)N[C@H](C(=O)N[C@@H](CCCCN)C(=O)O)C(C)C)[C@@H](C)O [E61–69] (H-YNAVLTHVK-OH)	> 70	0.093	> 70		
CC[C@H](C)[C@H](NC(=O)[C@H](CCCCN)NC(=O)[C@@H](NC(=O)[C@H](Cc1c[nH]cn1)NC(=O)[C@@H](NC(=O)[C@H](CC(C)C)NC(=O)[C@@H](NC(=O)[C@H](C)NC(=O)[C@@H](N)CC(N)=O)C(C)C)[C@@H](C)O)C(C)C)C(=O)O [E62–70] (H-NAVLTHVKI-OH)	> 70	1.54	> 70		
CC[C@H](C)[C@H](NC(=O)[C@H](CCCCN)NC(=O)[C@@H](NC(=O)[C@H](Cc1c[nH]cn1)NC(=O)[C@@H](NC(=O)[C@H](CC(C)C)NC(=O)[C@@H](NC(=O)[C@H](C)N)C(C)C)[C@@H](C)O)C(C)C)C(=O)N[C@@H](CC(N)=O)C(=O)O [E63–71] (H-AVLTHVKIN-OH)	> 70	54.7	20.7		
CC[C@H](C)[C@H](NC(=O)[C@@H](NC(=O)[C@@H]1CCCN1C(=O)[C@@H](NC(=O)[C@H](CCCNC(=N)N)NC(=O)[C@@H](N)CS)[C@@H](C)CC)C(C)C)C(=O)N[C@H](C(=O)N[C@@H](C)C(=O)N[C@@H](CC(=O)O)C(=O)O)C(C)C [E330–338] (H-CRIPVIVAD-OH)	> 70	0.915	54.2		
CC[C@H](C)[C@H](N)C(=O)N1CCC[C@H]1C(=O)N[C@H](C(=O)N[C@H](C(=O)N[C@H](C(=O)N[C@@H](C)C(=O)N[C@@H](CC(=O)O)C(=O)N[C@@H](CC(=O)O)C(=O)N[C@@H](CC(C)C)C(=O)O)C(C)C)[C@@H](C)CC)C(C)C [E332–340] (H-IPVIVADDL-OH)	> 70	33	0.056		
CC[C@H](C)[C@H](NC(=O)[C@@H](NC(=O)[C@@H]1CCCN1)C(C)C)C(=O)N[C@H](C(=O)N[C@@H](C)C(=O)N[C@@H](CC(=O)O)C(=O)N[C@@H](CC(=O)O)C(=O)N[C@@H](CC(C)C)C(=O)N[C@H](C(=O)O)[C@@H](C)O)C(C)C [E333–341] (H-PVIVADDLT-OH)	> 70	> 70	3.72		
CC[C@H](C)[C@H](NC(=O)[C@@H](N)C(C)C)C(=O)N[C@H](C(=O)N[C@@H](C)C(=O)N[C@@H](CC(=O)O)C(=O)N[C@@H](CC(=O)O)C(=O)N[C@@H](CC(C)C)C(=O)N[C@H](C(=O)N[C@@H](C)C(=O)O)[C@@H](C)O)C(C)C [E334–342] (H-VIVADDLTA-OH)	> 70	> 70	19.2		
CC[C@H](C)[C@H](NC(=O)[C@H](CCCCN)NC(=O)[C@H](CCC(N)=O)NC(=O)[C@@H](N)CC(C)C)C(=O)N[C@@H](CCC(=O)O)C(=O)N[C@@H](CCCNC(=N)N)C(=O)N[C@@H](Cc1c[nH]c2ccccc12)C(=O)N[C@@H](Cc1ccccc1)C(=O)N[C@H](C(=O)N[C@@H](CCCNC(=N)N)C(=O)N[C@@H](CC(N)=O)C(=O)N1CCC[C@H]1C(=O)N[C@@H](Cc1ccccc1)C(=O)N[C@@H](Cc1ccccc1)C(=O)N[C@@H](C)C(=O)O)C(C)C [M29–43]				0.593	1.56
CC(C)C[C@H](NC(=O)[C@H](C)NC(=O)[C@@H](NC(=O)[C@@H](NC(=O)[C@H](C)NC(=O)[C@H](Cc1ccccc1)NC(=O)[C@H](Cc1ccccc1)NC(=O)[C@@H]1CCCN1C(=O)[C@H](CC(N)=O)NC(=O)[C@H](CCCNC(=N)N)NC(=O)[C@@H](NC(=O)[C@H](Cc1ccccc1)NC(=O)[C@H](Cc1c[nH]c2ccccc12)NC(=O)[C@H](CCCNC(=N)N)NC(=O)[C@@H](N)CCC(=O)O)C(C)C)C(C)C)[C@@H](C)O)C(=O)O [M33–47]				0.0073	2.28
CC[C@H](C)[C@H](NC(=O)[C@@H](NC(=O)[C@H](CC(C)C)NC(=O)[C@H](C)NC(=O)[C@@H](NC(=O)[C@@H](NC(=O)[C@H](C)NC(=O)[C@H](Cc1ccccc1)NC(=O)[C@H](Cc1ccccc1)NC(=O)[C@@H]1CCCN1C(=O)[C@H](CC(N)=O)NC(=O)[C@H](CCCNC(=N)N)NC(=O)[C@@H](N)C(C)C)C(C)C)[C@@H](C)O)[C@@H](C)O)C(=O)N[C@@H](C)C(=O)N[C@@H](Cc1ccc(O)cc1)C(=O)O [M37–51]				0.04	1.92
CC[C@H](C)[C@H](NC(=O)[C@@H](NC(=O)[C@H](CC(C)C)NC(=O)[C@H](C)NC(=O)[C@@H](NC(=O)[C@@H](NC(=O)[C@H](C)NC(=O)[C@H](Cc1ccccc1)NC(=O)[C@@H](N)Cc1ccccc1)C(C)C)[C@@H](C)O)[C@@H](C)O)C(=O)N[C@@H](C)C(=O)N[C@@H](Cc1ccc(O)cc1)C(=O)N[C@@H](CC(C)C)C(=O)N[C@H](C(=O)NCC(=O)N[C@@H](CO)C(=O)O)C(C)C [M41–55]				6.21	> 45
CC[C@H](C)[C@H](NC(=O)[C@@H](NC(=O)[C@H](CC(C)C)NC(=O)[C@H](C)NC(=O)[C@@H](N)[C@@H](C)O)[C@@H](C)O)C(=O)N[C@@H](C)C(=O)N[C@@H](Cc1ccc(O)cc1)C(=O)N[C@@H](CC(C)C)C(=O)N[C@H](C(=O)NCC(=O)N[C@@H](CO)C(=O)N[C@@H](CC(N)=O)C(=O)N[C@@H](CCSC)C(=O)N[C@H](C(=O)N[C@@H](CCC(N)=O)C(=O)O)[C@@H](C)O)C(C)C [M45–59]				0.102	> 45
CC[C@H](C)[C@H](N)C(=O)N[C@@H](C)C(=O)N[C@@H](Cc1ccc(O)cc1)C(=O)N[C@@H](CC(C)C)C(=O)N[C@H](C(=O)NCC(=O)N[C@@H](CO)C(=O)N[C@@H](CC(N)=O)C(=O)N[C@@H](CCSC)C(=O)N[C@H](C(=O)N[C@@H](CCC(N)=O)C(=O)N[C@@H](CCCNC(=N)N)C(=O)N[C@H](C(=O)N[C@H](C(=O)N[C@H](C(=O)O)[C@@H](C)CC)C(C)C)C(C)C)[C@@H](C)O)C(C)C [M49–63]				0.383	29.7
CC[C@H](C)[C@H](NC(=O)[C@@H](NC(=O)[C@@H](NC(=O)[C@H](CCCNC(=N)N)NC(=O)[C@H](CCC(N)=O)NC(=O)[C@@H](NC(=O)[C@H](CCSC)NC(=O)[C@H](CC(N)=O)NC(=O)[C@H](CO)NC(=O)CNC(=O)[C@@H](N)C(C)C)[C@@H](C)O)C(C)C)C(C)C)C(=O)N[C@@H](C)C(=O)N[C@@H](CC(C)C)C(=O)N[C@@H](CC(C)C)C(=O)N[C@H](C(=O)O)C(C)C [M53–67]				0.03	32.3
CC[C@H](C)[C@H](NC(=O)[C@@H](NC(=O)[C@@H](NC(=O)[C@H](CCCNC(=N)N)NC(=O)[C@H](CCC(N)=O)NC(=O)[C@@H](NC(=O)[C@@H](N)CCSC)[C@@H](C)O)C(C)C)C(C)C)C(=O)N[C@@H](C)C(=O)N[C@@H](CC(C)C)C(=O)N[C@@H](CC(C)C)C(=O)N[C@H](C(=O)N[C@@H](CC(C)C)C(=O)N[C@@H](C)C(=O)N[C@H](C(=O)NCC(=O)O)C(C)C)C(C)C [M57–71]				6.48	> 45
CC[C@H](C)[C@H](NC(=O)[C@@H](NC(=O)[C@@H](N)C(C)C)C(C)C)C(=O)N[C@@H](C)C(=O)N[C@@H](CC(C)C)C(=O)N[C@@H](CC(C)C)C(=O)N[C@H](C(=O)N[C@@H](CC(C)C)C(=O)N[C@@H](C)C(=O)N[C@H](C(=O)NCC(=O)N1CCC[C@H]1C(=O)N[C@@H](C)C(=O)N[C@@H](Cc1ccc(O)cc1)C(=O)N[C@@H](CO)C(=O)O)C(C)C)C(C)C [M61–75]				0.38	> 45
